The values below come from patent US20240009116A1, “DRUG DELIVERY SYSTEM COMPRISING A NON-STEROIDAL ANTI-INFLAMMATORY (NSAID) AND A PROGESTOGENIC COMPOUND AND METHODS FOR MANUFACTURING” (Bayer OY, priority 2015, published 2024).

This data set can be described thus: Polymorph form during filament preparation and printing (i.a. X-ray diffraction). The data set is classed as physicochemical. The source says: As drug indomethacin was used. Indomethacin can appear in different polymorphic forms, which are differently bioavailable. In the current examples the stable form y-indomethacin was used. […] Other NSAID's such as meloxicam, piroxicam, naproxen, celecoxib, diclofenac, tenoxicam, nimesulide, lornoxicam and indomethacin are likewise suitable, of which indomethacin is particularly preferred.

`COc1ccc2c(c1)c(CC(=O)O)c(C)n2C(=O)c1ccc(Cl)cc1` [y-indomethacin, indomethacin]: the polymorph form stability result is “the polymorph form does not change during filament preparation and printing”.
